Laboratory results published in patent US9469878B2, “Methods of treating cancer comprising targeting NQO1” (The Board of Regents of the University of Texas System, priority 2010, dated 2016).

Tests used:
PARP-1 in PC-3 cells = test: PAR formation (PARP-1 hyperactivation), Western blot; assay type: cell-based, human
Protocol: Whole-cell extracts were prepared, proteins separated by SDSPAGE, and Western blots developed using SuperSignal® West Pico Chemiluminescent substrate (Thermo Scientific, Rockford, Ill.), and exposed using Autoradiography Film (Denville Scientific Inc., Metuchen, N.J.). Both PAR (BD Pharmingen, San Jose, Calif.) and γH2AX (Upstate, Billerica, Mass.) antibodies were used at 1:2000 and 1:1000 dilutions, respectively. […] or α-tubulin levels were used as loading control.

PC-3 cells [1] = test: Intracellular NAD+ and ATP levels; assay type: cell-based, human; details: β-lap exposure
Protocol: ATP levels were analyzed from whole-cell extracts using CellTiter-Glo Luminescent Cell Viability Assays (Promega, Madison, Wis.) following the manufacture's instructions. Data were graphed as means±SE from at least three independent experiments in triplicates.

PC-3 cells [2] = test: Apoptosis by TUNEL assay; assay type: cell-based, human; details: 2 μM β-lap alone, NQO1-expressing PC-3 cells
Protocol: Apoptosis was quantified using ApoDirect™ (TUNEL) assays from BD Pharmingen as described (Bey et al., 2007, Proc. Natl. Acad. Sci. USA, 104:11832-837). Samples were analyzed by using FC-500 flow cytometer (Beckman Coulter Electronics, Brea, Calif.) and Elite acquisition software. Data were expressed as means±SE from three independent experiments.

[3] = target: T1, NQO1 in 231-NQ+ cell extracts (Homo sapiens, UniProt P15559); test: Oxygen consumption in S9 cell extracts; assay type: biochemical; details: in 4 h, 231-NQ+ versus 231-NQ− cell extracts
T1 construct: expressed in transfected cells; host or cells: MDA-MB-231 (231-NQ+), S9 supernatant
T1 sequence (P15559 whole entry): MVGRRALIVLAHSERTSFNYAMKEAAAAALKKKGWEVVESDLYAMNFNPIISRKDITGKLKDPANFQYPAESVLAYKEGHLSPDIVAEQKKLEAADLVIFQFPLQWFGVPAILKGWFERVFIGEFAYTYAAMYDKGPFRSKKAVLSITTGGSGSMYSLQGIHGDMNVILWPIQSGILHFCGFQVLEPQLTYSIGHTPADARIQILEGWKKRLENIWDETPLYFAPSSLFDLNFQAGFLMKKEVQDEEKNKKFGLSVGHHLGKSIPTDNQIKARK

[4] = system: orthotopic lung tumors, *2/*2 or *3/*3; test: Survival of mice bearing orthotopic lung tumors; assay type: in vivo; details: *2/*2 or *3/*3 tumors, β-lap-HPβ-CD intravenously, 5 doses every other day
Protocol: FIG. 16 depicts NQO1 levels predict response to NQO1 bioactivatable therapies. In (a) LD50 responses of non-small cell lung cancer (NSCLC) cell lines treated with β-Lap for 2 h and harvester 7 days later. LD50 responses were plotted as a function of NQO1 enzymatic levels. The notations, *1/*1 and *2/*2 represent the NQO1 status of each cell line as homozygous wild type (*1/*1) or homozygous polymorphic (*2/*2) genotypes. Note that all heterozygote cells containing one wild-type allele (*1) are wild-type, phenotypically, for NQO1 expression, such that only homozygous *2/*2 or 3/3 are considered non-responsive to NQO1 bioactivatable drugs. Note the high resistance of H596 and H2862 cell lines to β-lapachone compared to all of the wild-type *1/*1 cells with LD50 values less than 5 μM. Note also that *3/*3 SNPs in NQO1 are far more rare than *2/*2 single point mutations in NQO1. In (b), Kaplan-Meier survival curve of mice bearing orthotopic lung tumors implanted with *1/*1 A549 cells. Mice were treated intravenously (5 doses every other day) with β-lap-HPβ-CD or vehicle alone (HPβ-CD). Similar studies with *2/*2 or *3/*3 tumors were performed and these tumors were non-responsive to β-lapachone or other NQO1 bioactivatable drug therapies.

[5] = system: NQO1-deficient LNCaP cells; test: Relative survival assay; assay type: cell-based, human
Protocol: Relative DNA cell survival assays were assessed after various treatments. […] Cells were then mock-treated or treated with various doses of β-lap (for 2 h) in the presence or absence of dicoumoral as indicated. Drug-free medium was then added and cells allowed to grow for 5-7 days until control cells reached ˜100% confluence. […] Results were reported as means±SE from at least three independent experiments.

NQO1+ human cancer cells = details: cited from earlier work
NQO1 [6] = target: T2, NQO1 (Homo sapiens, UniProt P15559); test: NQO1 enzyme assays using β-lapachone or the standard menadione substrates; assay type: biochemical; set-up: S9 Supernatants were prepared from cells in mid-log to late log phase growth; endogenous in cells; host or cells: cancer cell lines, mostly from a non-small cell lung cancer panel; S9 supernatants; details: β-lapachone as substrate, H1993 *1/*1
T2 sequence (P15559 whole entry): as above
Protocol: S9 Supernatants were prepared from cells in mid-log to late log phase growth. […] The cell suspensions were sonicated on ice four times, using 10-s pulses, and then centrifuged at 14,000×g for 20 min. The S9 supernatants were aliquoted into microcentrifuge tubes and stored at −80° C. until used. A 1× protease inhibitor cocktail was added to prevent enzyme activity degradation. […] Menadione was used as the electron acceptor. NADH was used as the electron donor.
NQO1 activity was measured using NADH (200 μM) as the immediate electron donor and menadione (10 μM) as the intermediate electron acceptor. […] Biochem. Biophys. […] NADH: cytochrome b5 reductase was measured using NADH (200 μM) as the electron donor, and […] was measured using NADPH (200 μM) as electron donor (45) in a Beckman DU 640 spectrophotometer (Beckman Coulter, Fullerton, Calif.). Reactions were carried out at 37° C. and were initiated by the addition of S9 supernatants. Varying amounts of supernatants, from 10 to 40 μL, were used to ensure linearity of rates with protein concentration. […] Results shown are the average enzyme activity for three separate cell extractions±S.D. or both values from duplicate experiments.
Cell lines, mostly from a 5-panel nonsmall cell lung cancer panel from the UT Southwestern SPORE, were assessed for NQO1 polymorphism status and then monitored for NQO1 enzyme assays using β-lapachone or the standard menadione substrates. […] NQO1*2/*2 and *3/*3 polymorphisms were detected from NQO1 *1/*1 wild-type sequences by PCR-RFLP. Genomic DNA was extracted from the cells using Qiagen spin columns. Using previously described oligonucleotide primers, PCR products underwent gel electrophoresis. Final genotyping was determined based on the size and pattern of separated bands diagnostic for *1/*1 (wild-type), or polymorphic *2/*2 or *3/*3 NQO1 polymorphisms.

NQO1 [7] = target: T2, NQO1; test: NADH recycling assay (NQO1 futile cycling); assay type: biochemical; set-up: S9 Supernatants were prepared from cells in mid-log to late log phase growth; endogenous in cells; host or cells: cancer cell lines, mostly from a non-small cell lung cancer panel (e.g. Calu-3); S9 supernatants; details: in 5 min, NQO1 futile cycle
Protocol: Assays were performed with either purified NQO1 or S9 extracts from MCF-7:WS8, or other cancer or normal cells. For the assay using purified NQO1, […] of recombinant human NQO1 was mixed with 200-500 μM NADH in 50 mM potassium phosphate buffer, pH 7.0.

## CC1(C)CCC2=C(O1)c1ccccc1C(=O)C2=O [β-Lap, 3,4-dihydro-2,2-dimethyl-2H-naphtho[1,2-b]pyran-5,6-dione]
PARP-1 in PC-3 cells; 1 Gy+3 μM β-lap, PC-3 cells, at 60 mins, no apparent levels after each agent alone
  PAR formation after combined treatment: dramatic PAR formation
PARP-1 in PC-3 cells; β-lap-exposed PC-3 cells, blocked by dicoumarol
  Time to significant accumulation of PAR: 10 to 20 min
PC-3 cells [1]
  Time to exhaustion of NAD+ and ATP levels: ≤ 120 min
PC-3 cells [2]
  Apoptosis: 5±2%
[3]
  Increase of O2 consumption: ~40 fold
[4]
  Response of tumors: non-responsive
[5]
  Response to β-lap: not responsive
NQO1+ human cancer cells; 1-2 μM treatments for 2-4 h
  Lethality: not lethal
NQO1+ human cancer cells; 2-3 μM for 2-4 h
  Cell death responses (TUNEL staining): > 90%
NQO1 [6]
  NQO1 activity, β-Lap: 1940 ± 12 nmol/min/µg
NQO1 [7]
  NAD(P)H used per mole of β-lap: > 60 mol
